The Kd is the concentration at which binding is half-saturated.

Structures are written as SMILES.

The record followed here is article PMC11108826 (Synthetic and Systems Biotechnology, 2024).

This assay has as its target T1, ORF-L16 (Saccharopolyspora spinosa, UniProt Q9ALP2).
T1 sequence (Q9ALP2 1-278): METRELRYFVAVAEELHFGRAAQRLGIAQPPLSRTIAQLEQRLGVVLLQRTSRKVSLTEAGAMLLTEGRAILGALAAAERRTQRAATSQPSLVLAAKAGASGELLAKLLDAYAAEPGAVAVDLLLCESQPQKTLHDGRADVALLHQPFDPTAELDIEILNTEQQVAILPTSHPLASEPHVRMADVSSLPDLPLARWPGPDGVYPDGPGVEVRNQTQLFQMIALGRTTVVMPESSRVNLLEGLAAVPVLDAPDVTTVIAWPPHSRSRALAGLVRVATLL
The assay can be described thus: isothermal titration calorimetry. In kind it is binding. (Isothermal titration calorimetry measures the heat released or taken up as one component is titrated into another.)

In turn, `CC[C@H]1CCC[C@H](O[C@H]2CC[C@H](N(C)C)[C@@H](C)O2)[C@@H](C)C(=O)C2=C[C@@H]3[C@@H](C=C[C@@H]4C[C@@H](O[C@@H]5O[C@@H](C)[C@H](OC)[C@@H](OC)[C@H]5OC)C[C@@H]34)[C@@H]2CC(=O)O1` [spinosyn A] showed a Kd of 2360 ± 40 nM.
